Data taken from patent US20140186329A1, “POLYPHENOL ANALOGS TO TREAT ISCHEMIA” (priority 2011, published 2014).
Read-outs that look alike come from different tables or passages of the source.

Experiments:
[1] = TEAC, ABTS decolorization assay; conditions: relative to Trolox
Experimental: TEAC values for the flavonoids were determined as described (Maher, P. et al., Free Radical Research. (2006), supra). Briefly, 250 μl of 2,2′-azinobis(3-ethylbenzothiazoline 6-sulfonate) (ABTS) treated overnight with potassium persulfate and diluted to an OD of ˜0.7 at 734 nm was added to 2.5 μl of a derivative solution in ethanol. The change in absorbance due to the reduction of the ABTS radical cation was measured at 734 nm for 4 min. To calculate the TEAC, the gradient of the plot of the percentage inhibition of absorbance vs. concentration for the derivative in question was divided by the gradient of the plot for Trolox.
(§1) Cell viability was determined after 24 hr by the MTT assay. The ability to maintain GSH (GSH) was determined by treating HT22 cells with different doses of each derivative (1-10 μM) in the presence of 5 mM glutamate. After 24 hr cell extracts were prepared and analyzed for total GSH. Fisetin (10 μM) was used as a positive control. The ability to induce PC12 cell differentiation (PC 12 diff' n) was determined by treating PC12 cells in N2 medium with different doses of each derivative (1-10 μM) for 24 hr. Differentiation was assessed by visual inspection with Fisetin (10 μM) as a positive control. Anti-inflammatory activity (microglia) was assessed in N9 microglial cells treated with bacterial lipopolysaccharide alone or in the presence different doses of each derivative (1-10 μM) for 24 hr. Fisetin was used as a positive control. TEAC values, a measure of direct antioxidant activity, were determined using the ABTS decolorization assay.

PC12 cells = experiment: PC12 cell differentiation (neurite outgrowth); type: cell-based; conditions: N2 medium, derivative 1-10 μM, 24 hr, visual inspection
Experimental: PC 12 cells in N2 medium were treated with the derivatives (1-10 μM) or Fisetin (10 μM) as a positive control for 24 hr at which time the cells were scored for the presence of neurites. PC12 cells produce neurites much more rapidly when treated in N2 medium than when treated in regular growth medium. For each treatment, 100 cells in each of three separate fields were counted. Cells were scored positive if one or more neurites>1 cell body diameter in length were observed.
(§2) Three secondary screens allowed assessment of three key activities of Fisetin that are highly relevant to stroke, as well as other neurological disorders: maintenance of glutathione (GSH), the major endogenous cellular antioxidant, inhibition of LPS-induced microglial activation, an indicator of anti-inflammatory activity and PC 12 cell differentiation, a measure of neurotrophic activity. All of these activities are relevant to the nerve cell loss seen in stroke (Gelderblom, et al., Stroke. 2009, 40 (5), 1849-1857; Pandya, et al., Cent. Nerv. Syst. Agents. Med. Chem. (2011) April 27; Lewerenz, et al., J. Neurochem. (2010) 113 (2), 502-504). […] To assess GSH maintenance, total intracellular GSH levels after a 24 hr treatment with the compound both in the absence and presence of glutamate, an inducer of GSH loss and oxidative stress (Tan, et al., Curr. Top. Med. Chem. (2001) 1, 497-506; Maher, et al., Free Radical Research. (2006) 40 (10), 1105-1111) was measured. Inhibition of LPS-induced microglial activation was determined by treating N9 mouse microglial cells with LPS alone and in the presence of the compounds and assaying NO release into the medium 24 hr later (Zheng, et al., Int. Immunopharmacol. (2008) 8, (3), 484-494). PC12 cell differentiation was determined by treating PC12 cells with the compounds and looking at neurite outgrowth after 24 hr. In all cases, Fisetin was used as a positive control (Sagara, et al., J. Neurochem. (2004) 90, 1144-1155).
as §1

HT22 cells [2] = experiment: In vitro ischemia assay (HT22 cell IAA assay, MTT); type: cell-based, mouse; conditions: for EC50: Mus musculus, HT-22, HT22 cells; for EC50 in vitro ischemia (μM): HT22 cells
Experimental: Cell viability was determined by a modified version of 3-(4,5-dimethylthiazol-2-yl)-2,5-diphenyl tetrazolium bromide (MTT) assay based on the standard procedure (Maher, et al., Brain Research. (2007), supra). Cells were seeded onto 96-well microtiter plates at a density of 5×10^3 cells per well. For the in vitro ischemia assay, the next day, the medium was replaced with DMEM supplemented with 7.5% DFCS and the cells were treated with 20 μM iodoacetic acid (IAA) alone or in the presence of the different derivatives. After 2 hr the medium in each well was aspirated and replaced with fresh medium without IAA but containing the derivatives. 20 hr later, the medium in each well was aspirated and replaced with fresh medium containing 2.5 μg/ml MTT. After 4 hr of incubation at 37° C., the cells were solubilized with 100 μl of a solution containing 50% dimethylformamide and 20% SDS (pH 4.7). The absorbance at 570 nm was measured on the following day with a microplate reader (Molecular Devices). Results were confirmed by visual inspection of the wells. Controls included compound alone to test for toxicity and compound with no cells to test for interference with the assay chemistry.
For a primary screen, an in vitro ischemia model in combination with the HT22 nerve cell line (Maher, et al., Brain Research. (2007) 1173, 117-125) was chosen. […] To induce ischemia in the HT22 cells we used iodoacetic acid (IAA), a well-known, irreversible inhibitor of the glycolytic enzyme glyceraldehyde 3-phosphate dehydrogenase (G3PDH) (Winkler, et al., Exp. Eye Res. (2003) 76, 715-723). IAA has been used in a number of other studies to induce ischemia in nerve cells (Reshef, et al., Neurosci. Lett. (1997) 238, 37-40; Sperling, et al., Neursci. Lett. (2003) 351, 137-140; Rego, et al., Neurochem. Res. (1999) 24, 351-358; Sigalov, et al., J. Mol. Neurosci. (2000) 15, 147-154; and Reiner, et al., Neurosci. Lett. (1990) 119, 175-178), including several recent screens for neuroprotective molecules (Biraboneye, et al., J. Med. Chem. (2009) 52 (14), 4358-4369; Biraboneye, et al., Chem. Med. Chem. (2010) 5 (1), 79-85). The changes following IAA treatment of neural cells are very similar to those seen in animal models of ischemic stroke (Lipton, et al., Physiol. Rev. (1999) 79, 1431-1568) and include alterations in membrane potential (Reiner, et al., Neurosci. Lett. (1990) 119, 175-178), breakdown of phospholipids (Taylor, et al., J. Pharmacol. Exp. Ther. (1996) 276, 1224-1231), loss of ATP (Winkler, et al., Exp. Eye Res. (2003) 76, 715-723; Sperling, et al., Neursci. Lett. (2003) 351, 137-140) and an increase in reactive oxygen species (ROS) (Taylor, et al., J. Pharmacol. Exp. Ther. (1996), supra; and Sperling, et al., Neursci. Lett. (2003) 351, 137-140).
as §1
For rapid screening of chemical libraries, a mouse HT22 hippocampal cell death assay induced by addition of the compound iodoacetic acid (IAA) was used. IAA is a well-known, irreversible inhibitor of the glycolytic enzyme glyceraldehyde 3-phosphate dehydrogenase (G3PDH). […]

HT22 cells [3] = experiment: Maintenance of total GSH in the presence of glutamate; type: cell-based, mouse; conditions: derivative 1-10 μM, 5 mM glutamate, 24 hr
Experimental: Total intracellular glutathione was determined by a chemical assay as described (Maher, P. et al., Free Radical Research. (2006) 40 (10), 1105-1111).
as §2, §1

[4] = 20 μM IAA for 2 hr, viability after 24 hr by MTT, read-out: EC50 in vitro ischemia
[5] = 20 μM IAA for 2 hr, viability after 24 hr by MTT

Row | Structure (SMILES) | TEAC [1] | PC12 diff'n (ability to induce PC12 cell differentiation) (PC12 cells) | EC50 (HT22 cells [2]; [4]) | GSH (ability to maintain GSH) (HT22 cells [3]) | EC50 in vitro ischemia (μM) (HT22 cells [2]; [5]) | fold enhancement of neuroprotective activity relative to CMS-027 (HT22 cells [2]; in vitro ischemia, HT22/IAA) | EC50 (HT22 cells [2]; 20 μM IAA, read-out: HT22 Cell IAA assay EC50)
1 | O=c1c(O)c(-c2ccc(O)c(O)c2)oc2ccc3ccccc3c12 [CMS-041, 3-(3,4-dihydroxyphenyl)-2-hydroxy-1H-benzo[h]chromen-1-one] | 1.26 | yes | 250 nM | no |  |  | 
2 | CC(C)Oc1cc(-c2ccc(N(C)C)cc2)nc2ccccc12 [CMS-112, 4-isopropoxy-2-(4-dimethylaminophenyl)quinoline] | 0.15 | no | 50 nM | no |  |  | 
3 | Cc1cc2oc(-c3ccc(O)cc3O)cc(=O)c2cc1C [CMS-094, 2-(2,4-dihydroxyphenyl)-6,7-dimethyl-4H-chromen-4-one] | 0.15 | no | > 500 nM | no |  |  | 
4 | CCOc1ccc(-c2cc(OC)c3ccccc3n2)cc1OCC [CMS-004, 4-methoxy-2-(3,4-diethoxyphenyl) quinoline] | 0.12 | no |  | no | no |  | 
5 | COc1cc(-c2ccccc2)nc2ccccc12 [CMS-021, 4-methoxy-2-phenylquinoline] | 0.12 | no | 750 nM | no |  |  | 
6 | COc1cc(-c2oc3c(ccc4ccccc43)c(=O)c2O)ccc1O [CMS-070, 3-hydroxy-2-(4-hydroxy-3-methoxyphenyl)-4H-benzo[h]chromen-4-one] | 0.63 | yes | > 500 nM | no |  |  | 
7 | Cc1cc2oc(-c3ccc(O)cc3O)c(O)c(=O)c2cc1C [CMS-093, 2-(2,4-dihydroxyphenyl)-3-hydroxy-6,7-dimethyl-4H-chromen-4-one] | 1.56 | no | > 500 nM | no |  |  | 
8 | Cc1cc2oc(-c3ccc(O)c(O)c3)cc(=O)c2cc1C [CMS-028, 2-(3,4-dihydroxyphenyl)-6,7-dimethyl-4H-chromen-4-one] | 0.27 | no | 250 nM | no |  | 2 fold | 
9 | O=c1cc(-c2ccc(N3CCCC3)cc2)oc2c1ccc1ccccc12 [CMS-115, 2-(4-(pyrrolidin-1-yl)phenyl)-4H-benzo[h]chromen-4-one] | 0.03 | no | 200 nM | no |  |  | 
10 | CCOc1ccc(-c2oc3c(ccc4ccccc43)c(=O)c2O)cc1OCC [CMS-036, 2-(3,4-diethoxyphenyl)-3-hydroxy-4H-benzo[h]chromen-4-one] | 0.15 | no | 300 nM | no |  |  | 
11 | COc1cc(-c2ccc([N+](=O)[O-])c(O)c2)nc2ccccc12 [CMS-111, 4-methoxy-2-(3-hydroxy-4-nitrophenyl)quinoline] | 0.18 | no |  | no | no |  | 
12 | Cc1cc2oc(-c3ccc(O)c(O)c3)c(O)c(=O)c2cc1C [CMS-027, 2-(3,4-dihydroxyphenyl)-3-hydroxy-6,7-dimethyl-4H-chromen-4-one] | 1.89 | no | 500 nM | no |  |  | 
13 | COc1cc(-c2oc3c(ccc4ccccc43)c(=O)c2O)ccc1OCc1ccccc1 [CMS-065, 2-(4-(benzyloxy)-3-methoxyphenyl)-3-hydroxy-4H-benzo[h]chromen-4-one] | 0 | yes | 80 nM | no |  |  | 81 nM
